Columns and labels:
[1] = tested on: S221 (mouse-adapted DENV2 strain); experiment: Ab-mediated infection of THP-1 cells with enhancing concentration of 4G2 Ab; type: cell-based; settings: THP-1 with 4G2 Ab, S221, MOI 2, single experiment; read-out: EC50
Procedure: (§1) Cells were infected with DENV strains for 1 hour at 37° C. and washed once with culture media. […] The supernatants were subjected to standard plaque assay and the EC50 values were determined using the GraphPad Prism software.
(§2) NITD008, an adenosine analog inhibitor of DENV polymerase (Yin et al., 2009) was used as a positive control.

[2] = tested on: EDEN1 (clinical DENV1 isolate); experiment: as above; type: cell-based; settings: THP-1 with 4G2 Ab, EDEN1, MOI 2, single experiment; read-out: EC50
Procedure: as §1, §2

[3] = tested on: EDEN2 (clinical DENV2 isolate); experiment: as above; type: cell-based; settings: THP-1 with 4G2 Ab, EDEN2, MOI 50, single experiment; read-out: EC50
Procedure: as §1, §2

EDEN2 = experiment: Non-lethal viremia mouse model; type: in vivo, mice
Procedure: (§3) Mice were inoculated i.v. with EDEN1 (7×10^7 pfu) or EDEN2 (1×10^8 pfu). […] Average viral copy numbers on day 1 and 2 were measured using mixed serum of each group. […] A P value less than 0.05 was considered significant (*P<0.05). The number of mice per group is 6. […] Average viral copy numbers on days 4 and 5 were measured using mixed serum of each group. […] The virological log reduction (VLR) from day 3 to day 6 was also shown as the mean value and standard deviations. The number of mice per group is 6.
(§4) Since dengue fever patients in general present at a clinic when viremia is at a peak level (Low et al., 2014; Nguyen et al., 2013; Tricou et al., 2010), we next compared the 2 different dosing regimens; one started at the time of infection and another started at the time of peak viremia (on day 3 pi) similar to human situation (FIG. 4A). In this experiment, we used a non-lethal viremia mouse model, which permits the tracking of viremia kinetics for a longer period of time (FIG. 1B).

EDEN1 = experiment: Non-lethal viremia mouse model; type: in vivo, mice
Procedure: as §3, §4

[4] = tested on: S221 (mouse-adapted DENV2 strain); experiment: Antiviral effect in Vero cells, plaque assay of supernatant 48 h pi; type: cell-based; settings: S221, MOI 0.3, read-out: EC50
Procedure: as §1, §2

[5] = tested on: EDEN1 (clinical DENV1 isolate); experiment: as above; type: cell-based
Procedure: as §1, §2

[6] = tested on: EDEN2 (clinical DENV2 isolate); experiment: as above; type: cell-based; settings: EDEN2, MOI 0.3, read-out: EC50
Procedure: as §1, §2

[7] = tested on: S221 (mouse-adapted DENV2 strain); experiment: Antiviral effect in BHK-21 cells, plaque assay of supernatant 48 h pi; type: cell-based; settings: BHK-21, S221, MOI 0.3; read-out: EC50
Procedure: as §1, §2

[8] = tested on: EDEN1 (clinical DENV1 isolate); experiment: as above; type: cell-based; settings: read-out: EC50
Procedure: as §1, §2

[9] = tested on: EDEN2 (clinical DENV2 isolate); experiment: as above; type: cell-based; settings: BHK-21, EDEN2, MOI 0.3; read-out: EC50
Procedure: as §1, §2

[10] = tested on: S221 (mouse-adapted DENV2 strain); experiment: Antiviral effect in HuH-7 cells, plaque assay of supernatant 48 h pi; type: cell-based; settings: HuH-7, S221, MOI 0.3; read-out: EC50
Procedure: as §1, §2

[11] = tested on: EDEN1 (clinical DENV1 isolate); experiment: as above; type: cell-based; settings: read-out: EC50
Procedure: as §1, §2

[12] = tested on: EDEN2 (clinical DENV2 isolate); experiment: as above; type: cell-based; settings: HuH-7, EDEN2, MOI 0.3; read-out: EC50
Procedure: as §1, §2

[13] = CELADEN study regimen, human; cited from earlier work
[14] = mice, celgosivir 50 mg/kg BID; cited from earlier work

For C#C[C@@]1(O)[C@H](O)[C@@H](CO)O[C@H]1n1ccc2c(N)ncnc21 [NITD008, reference compound], which EC50 [1] is on record?
Its EC50 is 390 nM.

And the EC50 [2]?
Its EC50 is 358 nM.

And the EC50 [3]?
The EC50 was 679 nM.

And the “viremia reduction on day 3 pi” value (EDEN2; EDEN2, NITD008 25 mg/kg BID from day 0)?
The value was 4.9 fold.

And the “VLR from day 3 to day 6” value (EDEN2; EDEN2, NITD008 25 mg/kg BID started on day 3)?
The value was 2.24.

And the “viremia reduction on day 3 pi” value (EDEN1; EDEN1, NITD008 25 mg/kg BID from day 0)?
Its value is 3.5 fold.

And the “VLR from day 3 to day 6” value (EDEN1; EDEN1, NITD008 25 mg/kg BID started on day 3)?
The value was 0.96.

What about the EC50 [4] of the same molecule?
The EC50 was 1480 nM.

What about the EC50 ([5]; EDEN1, MOI 0.01, read-out: EC50) of the same molecule?
Its EC50 is 910 nM.

What about the EC50 ([5]; EDEN1, MOI 0.3, read-out: EC50) of the same molecule?
Its EC50 is 2820 nM.

And the EC50 [6]?
Its EC50 is 1170 nM.

What about the EC50 [7] of the same molecule?
Its EC50 is 509 nM.

What about the EC50 ([8]; BHK-21, EDEN1, MOI 0.01) of the same molecule?
Its EC50 is 608 nM.

What about the EC50 ([8]; BHK-21, EDEN1, MOI 0.3) of the same molecule?
The EC50 was 865 nM.

And the EC50 [9]?
Its EC50 is 354 nM.

And the EC50 [10]?
Its EC50 is 74 nM.

What about the EC50 ([11]; HuH-7, EDEN1, MOI 0.01) of the same molecule?
The EC50 was 356 nM.

And the EC50 ([11]; HuH-7, EDEN1, MOI 0.3)?
Its EC50 is 684 nM.

And the EC50 [12]?
Its EC50 is 98 nM.

What does the source list for O[C@H]1[C@H](O)[C@@H](O)CN2CC[C@H](O)[C@H]12 [castanospermine]?
steady state maximum castanospermine concentration [13]: 5100 nanograms/ml; steady state minimum castanospermine concentration [14]: 400 nanograms/ml

Source: US11000516B2 (priority 2015, dated 2021)
